These results are taken from the supplement of paper PMC4862054.

What all share (details): incubation time: 72 h
Experiment [1] deals with CAL-148. The experiment is described as follows: normalised viability (% of control), CellTiter-Blue; higher = more viable cells (about 100 = DMSO control). On the procedure:
(§1)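 DSRT, CellTiter-Blue viability, 72 h incubation. Signal is normalised to DMSO and benzethonium chloride controls. Value is the normalised response at dose 7.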

Experiment [2] concerns CAL-51. The experiment is described as above. On the procedure: as §1
The test system of experiment [3] is CAL-85-1. Described as above. On the procedure: as §1
The test system of experiment [4] is DU-4475. Described as above. On the procedure: as §1
Experiment [5] relates to HDQ-P1. Described as above. On the procedure: as §1
For experiment [6], the system named is MDA-MB-453. The description is as above. On the procedure:
as §1

In experiment [7] the test system is CAL-51. The experiment is described as follows: normalised viability (% of control), CellTiter-Blue; higher = more viable cells (about 100 = DMSO control). In a few lines: (§2)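 Seeded at 20 µl suspension per well onto compound-loaded 384-well plates, breast cancer cell lines were incubated 72 h. CellTiter-Blue fluorescence at 560/590 nm was then read, with each plate normalised to vehicle (100) and a positive kill control (0). Normalised viability is reported at a single listed concentration of the series.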
This is another data set of the same source.

In experiment [8] the test system is MDA-MB-231. Described as above. The procedure, abridged:
as §2

The test system of experiment [9] is BT-474. The experiment is described as follows: drug sensitivity score (DSS), CellTox Green (DSS (AUC-based score)); higher = stronger drug effect (viability inhibition or cytotoxicity); extreme values may be limits of the assay. The procedure, abridged:
(§3)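 Breast cancer cell lines (20 µl suspension) were seeded into 384-well plates holding compound at 5 concentrations in 10-fold steps over a compound-specific 10,000-fold range, then incubated 72 h. CellTox Green fluorescence (485/520 nm) was read first, then CellTiter-Glo luminescence after 10 min at room temperature. Each plate was normalised to 0.1 % DMSO and a positive kill control. The drug sensitivity score was calculated from the area under the fitted dose-response curve.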

Experiment [10] deals with BT-549. Described as above. In a few lines:
as §3

In experiment [11] the test system is CAL-120. The description is as above. The procedure, abridged:
as §3

The subject of experiment [12] is CAL-148. Described as above. The procedure, abridged:
as §3

Experiment [13] deals with CAL-51. Described as above. The procedure, abridged:
as §3

Experiment [14] relates to CAL-85-1. The experiment is described as above. The procedure, abridged: as §3
Experiment [15] concerns DU-4475. The description is as above. The procedure, abridged: as §3
The subject of experiment [16] is HCC1143. The description is as above. The procedure, abridged:
as §3

Experiment [17] deals with HCC1599. Described as above. The procedure, abridged: as §3
Experiment [18] deals with HCC1937. The description is as above. The procedure, abridged:
as §3

Experiment [19] has as its system HDQ-P1. Described as above. In a few lines:
as §3

Experiment [20] relates to Hs578T. The description is as above. The procedure, abridged: as §3
The subject of experiment [21] is MCF-10A. The description is as above. The procedure, abridged:
as §3

Experiment [22] deals with MDA-MB-231. The description is as above. In a few lines: as §3
For experiment [23], the system named is MDA-MB-436. The description is as above. In a few lines: as §3
Experiment [24] relates to MDA-MB-453. Described as above. In a few lines: as §3
Experiment [25] deals with MDA-MB-468. Described as above. The procedure, abridged:
as §3

For experiment [26], the system named is MFM-223. The experiment is described as above. In a few lines:
as §3

On to `Cc1c(N)nc([C@H](CC(N)=O)NC[C@H](N)C(N)=O)nc1C(=O)N[C@H](C(=O)N[C@H](C)[C@@H](O)[C@H](C)C(=O)N[C@H](C(=O)NCCc1nc(-c2nc(C(=O)NCCC[S+](C)C)cs2)cs1)[C@@H](C)O)[C@@H](OC1OC(CO)C(O)C(O)C1OC1OC(CO)C(O)C(OC(N)=O)C1O)c1cnc[nH]1` (some centres undefined) [Bleomycin] (1000 nM), for which the normalised viability was 105% in experiment [1]; 105% in experiment [2]; 94.5% in experiment [3]; 98.9% in [4]; 88% in experiment [5]; 94.3% in experiment [6].

Consider `Cc1cc2c(F)c(Oc3ncnn4cc(OC[C@@H](C)O)c(C)c34)ccc2[nH]1` [Brivanib] (100 nM), for which the normalised viability came out at 111% in [1]; 93.7% in experiment [2]; 87% in experiment [3]; 104% in experiment [4]; 110% in experiment [5]; 90% in experiment [6].

Regarding `CC(C)C[C@H](NC(=O)[C@H](CCc1ccccc1)NC(=O)CN1CCOCC1)C(=O)N[C@@H](Cc1ccccc1)C(=O)N[C@@H](CC(C)C)C(=O)[C@@]1(C)CO1` [Carfilzomib] (100 nM), the normalised viability in experiment [1] was determined as 2.75%; in [2] it was 10.2%; in [3], 3.69%; in experiment [4] it was 1.6%; in experiment [5], 0.52%; in [6], 12.1%.

As for `Nc1nc(Cl)nc2c1ncn2[C@@H]1O[C@H](CO)[C@@H](O)[C@@H]1F` [Clofarabine] (1000 nM), the normalised viability in experiment [1] stood at 40.8%; in [2], 52.1%; in experiment [3] it was 56.1%; in experiment [4], 29%; in experiment [5] it was 101%; in [6], 53.6%.

For the compound `CCN(CC)CCOc1ccc(C(=C(Cl)c2ccccc2)c2ccccc2)cc1` [Clomifene] (1000 nM), the normalised viability in experiment [1] worked out at 110%; in experiment [2], 85.4%; in experiment [3] it was 97.6%; in experiment [4], 103%; in [5] it was 128%; in [6], 108%.

Regarding `C[C@@H]1C[C@H]2[C@@H]3CCC4=CC(=O)C=C[C@]4(C)[C@@]3(F)[C@@H](O)C[C@]2(C)[C@@]1(O)C(=O)CO` [Dexamethasone] (1000 nM), the normalised viability in experiment [1] was 115%; in [2], 101%; in experiment [3], 103%; in [4], 106%; in [5], 117%; in experiment [6] it was 69.8%.

In the case of `CC(C)C(=O)Nc1ccc([N+](=O)[O-])c(C(F)(F)F)c1` [Flutamide] (1000 nM), the normalised viability in experiment [1] turned out to be 104%; in [2], 115%; in experiment [3], 84.2%; in [4], 102%; in experiment [5], 101%; in experiment [6], 90.1%.

Regarding `COc1cc2c(Oc3ccc(NC(=O)C4(C(=O)Nc5ccc(F)cc5)CC4)cc3F)ccnc2cc1OCCCN1CCOCC1` [Foretinib] (100 nM), the normalised viability in experiment [1] turned out to be 92.8%; in experiment [2] it was 85.4%; in experiment [3], 84.7%; in experiment [4] it was 100%; in experiment [5], 77.3%; in [6] it was 91.1%.

As for `NC(=O)NO` [Hydroxyurea] (10000 nM), the normalised viability in [1] was determined as 112%; in experiment [2], 104%; in experiment [3], 102%; in experiment [4], 101%; in experiment [5] it was 103%; in experiment [6], 108%.

As for `O=NN(CCCl)C(=O)NC1CCCCC1` [Lomustine] (1000 nM), the normalised viability in [1] is 92.3%; in [2], 110%; in experiment [3], 93.3%; in [4], 90.6%; in [5] it was 97.6%; in experiment [6], 94.4%.

As for `O=C(O)CC[C@H]1CC[C@@](c2cc(F)ccc2F)(S(=O)(=O)c2ccc(Cl)cc2)CC1` [MK-0752] (100 nM), the normalised viability in experiment [1] amounted to 122%; in experiment [2], 101%; in experiment [3], 102%; in experiment [4] it was 122%; in experiment [5] it was 110%; in experiment [6], 109%.

`NC1(c2ccc(-c3nc4ccn5c(=O)[nH]nc5c4cc3-c3ccccc3)cc2)CCC1` [MK-2206] (100 nM): the normalised viability in experiment [1] was 91.5%; in experiment [2] it was 100%; in [3] it was 86.7%; in experiment [4] it was 92.7%; in experiment [5], 82.9%; in [6] it was 84.4%.

For the compound `NC(=O)c1cccc2cn(-c3ccc([C@@H]4CCCNC4)cc3)nc12` [MK-4827] (1000 nM), the normalised viability in [1] was found to be 87.4%; in experiment [2], 90.8%; in [3], 93%; in experiment [4], 78.9%; in experiment [5], 91.8%; in experiment [6], 93.3%.

Take `O=C(c1cc(Cc2n[nH]c(=O)c3ccccc23)ccc1F)N1CCN(C(=O)C2CC2)CC1` [Olaparib] (1000 nM): the normalised viability in [1] is 84.3%; in experiment [2] it was 88.6%; in experiment [3], 85.8%; in experiment [4], 81.1%; in experiment [5], 104%; in experiment [6], 79.4%.

For the compound `COc1cc2c(N3CCN(C(=O)Nc4ccc(OC(C)C)cc4)CC3)ncnc2cc1OCCCN1CCCCC1` [Tandutinib], the normalised viability in [7] (1 nM) is 109%; in experiment [8] (10 nM), 108%. Also, the drug sensitivity score in experiment [9], in [10], in experiment [11], in experiment [12], in experiment [13] and in [14] was 0 throughout. The drug sensitivity score in [15], in [16], in [17], in experiment [18], in experiment [19] and in experiment [20] was 0 throughout. In addition, the drug sensitivity score in [21], in experiment [22], in [23], in experiment [24], in experiment [25] and in [26] was 0 throughout.

As for `Cn1nnc2c(C(N)=O)ncn2c1=O` [Temozolomide], the normalised viability in experiment [7] (10 nM) was 98.5%; in [8] (100 nM) it was 104%. For the same compound, the drug sensitivity score in experiment [9], in [10], in experiment [11], in experiment [12], in experiment [13] and in experiment [14] was 0 in each case. Moreover, the drug sensitivity score in experiment [15], in [16], in experiment [17], in experiment [18], in experiment [19] and in experiment [20] was 0 throughout. The drug sensitivity score in experiment [21], in [22], in experiment [23], in experiment [24], in experiment [25] and in experiment [26] was 0 in each case.

On to `CC[C@@H]1C(=O)N(C)c2cnc(Nc3ccc(C(=O)N[C@H]4CC[C@H](N5CCN(CC6CC6)CC5)CC4)cc3OC)nc2N1C(C)C` [Volasertib], for which the normalised viability in experiment [7] (1 nM) was determined as 102%; in experiment [8] (10 nM), 92.8%. In addition, the drug sensitivity score in experiment [9] is 0; in experiment [10], 3.98; in experiment [11], 0; in [12], 0; in experiment [13], 14.5; in experiment [14] it was 8.26. Further, the drug sensitivity score came to 0 in [15]; 14.8 in experiment [16]; 0 in experiment [17]; 17.3 in experiment [18]; 7.16 in experiment [19]; 10.7 in experiment [20]. Moreover, the drug sensitivity score in [21] was found to be 19.4; in [22], 3.33; in [23], 0; in experiment [24] it was 0; in [25], 0; in experiment [26] it was 14.5.
